For series [1], the target named is T1, Tyrosine-protein phosphatase non-receptor type 1 (Homo sapiens, UniProt P18031).
T1 sequence (P18031 whole entry): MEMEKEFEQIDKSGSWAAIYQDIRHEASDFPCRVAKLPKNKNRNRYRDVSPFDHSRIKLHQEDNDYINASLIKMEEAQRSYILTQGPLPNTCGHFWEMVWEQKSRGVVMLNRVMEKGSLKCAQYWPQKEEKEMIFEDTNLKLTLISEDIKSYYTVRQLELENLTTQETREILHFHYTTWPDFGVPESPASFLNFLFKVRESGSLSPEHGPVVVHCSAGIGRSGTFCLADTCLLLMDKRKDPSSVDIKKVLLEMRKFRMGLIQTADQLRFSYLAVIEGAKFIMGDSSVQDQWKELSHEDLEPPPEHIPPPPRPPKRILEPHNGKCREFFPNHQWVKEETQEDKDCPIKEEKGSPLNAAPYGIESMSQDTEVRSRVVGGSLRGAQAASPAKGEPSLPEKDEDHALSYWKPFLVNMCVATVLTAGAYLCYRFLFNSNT
Put plainly: Inhibition of Protein-tyrosine phosphatase 1B in 2 mM DTT.

In series [2] the target is T1, Tyrosine-protein phosphatase non-receptor type 1. Put plainly: Inhibition of Protein-tyrosine phosphatase 1B in 300 nM DTT.
For series [3], the target named is Receptor-type tyrosine-protein phosphatase F (Homo sapiens, UniProt P10586). Briefly: In vitro inhibitory concentration required against Leukocyte antigen related receptor phosphatase (LAR) in the presence of 300 nM DTT.
Sequence of Receptor-type tyrosine-protein phosphatase F (P10586 whole entry): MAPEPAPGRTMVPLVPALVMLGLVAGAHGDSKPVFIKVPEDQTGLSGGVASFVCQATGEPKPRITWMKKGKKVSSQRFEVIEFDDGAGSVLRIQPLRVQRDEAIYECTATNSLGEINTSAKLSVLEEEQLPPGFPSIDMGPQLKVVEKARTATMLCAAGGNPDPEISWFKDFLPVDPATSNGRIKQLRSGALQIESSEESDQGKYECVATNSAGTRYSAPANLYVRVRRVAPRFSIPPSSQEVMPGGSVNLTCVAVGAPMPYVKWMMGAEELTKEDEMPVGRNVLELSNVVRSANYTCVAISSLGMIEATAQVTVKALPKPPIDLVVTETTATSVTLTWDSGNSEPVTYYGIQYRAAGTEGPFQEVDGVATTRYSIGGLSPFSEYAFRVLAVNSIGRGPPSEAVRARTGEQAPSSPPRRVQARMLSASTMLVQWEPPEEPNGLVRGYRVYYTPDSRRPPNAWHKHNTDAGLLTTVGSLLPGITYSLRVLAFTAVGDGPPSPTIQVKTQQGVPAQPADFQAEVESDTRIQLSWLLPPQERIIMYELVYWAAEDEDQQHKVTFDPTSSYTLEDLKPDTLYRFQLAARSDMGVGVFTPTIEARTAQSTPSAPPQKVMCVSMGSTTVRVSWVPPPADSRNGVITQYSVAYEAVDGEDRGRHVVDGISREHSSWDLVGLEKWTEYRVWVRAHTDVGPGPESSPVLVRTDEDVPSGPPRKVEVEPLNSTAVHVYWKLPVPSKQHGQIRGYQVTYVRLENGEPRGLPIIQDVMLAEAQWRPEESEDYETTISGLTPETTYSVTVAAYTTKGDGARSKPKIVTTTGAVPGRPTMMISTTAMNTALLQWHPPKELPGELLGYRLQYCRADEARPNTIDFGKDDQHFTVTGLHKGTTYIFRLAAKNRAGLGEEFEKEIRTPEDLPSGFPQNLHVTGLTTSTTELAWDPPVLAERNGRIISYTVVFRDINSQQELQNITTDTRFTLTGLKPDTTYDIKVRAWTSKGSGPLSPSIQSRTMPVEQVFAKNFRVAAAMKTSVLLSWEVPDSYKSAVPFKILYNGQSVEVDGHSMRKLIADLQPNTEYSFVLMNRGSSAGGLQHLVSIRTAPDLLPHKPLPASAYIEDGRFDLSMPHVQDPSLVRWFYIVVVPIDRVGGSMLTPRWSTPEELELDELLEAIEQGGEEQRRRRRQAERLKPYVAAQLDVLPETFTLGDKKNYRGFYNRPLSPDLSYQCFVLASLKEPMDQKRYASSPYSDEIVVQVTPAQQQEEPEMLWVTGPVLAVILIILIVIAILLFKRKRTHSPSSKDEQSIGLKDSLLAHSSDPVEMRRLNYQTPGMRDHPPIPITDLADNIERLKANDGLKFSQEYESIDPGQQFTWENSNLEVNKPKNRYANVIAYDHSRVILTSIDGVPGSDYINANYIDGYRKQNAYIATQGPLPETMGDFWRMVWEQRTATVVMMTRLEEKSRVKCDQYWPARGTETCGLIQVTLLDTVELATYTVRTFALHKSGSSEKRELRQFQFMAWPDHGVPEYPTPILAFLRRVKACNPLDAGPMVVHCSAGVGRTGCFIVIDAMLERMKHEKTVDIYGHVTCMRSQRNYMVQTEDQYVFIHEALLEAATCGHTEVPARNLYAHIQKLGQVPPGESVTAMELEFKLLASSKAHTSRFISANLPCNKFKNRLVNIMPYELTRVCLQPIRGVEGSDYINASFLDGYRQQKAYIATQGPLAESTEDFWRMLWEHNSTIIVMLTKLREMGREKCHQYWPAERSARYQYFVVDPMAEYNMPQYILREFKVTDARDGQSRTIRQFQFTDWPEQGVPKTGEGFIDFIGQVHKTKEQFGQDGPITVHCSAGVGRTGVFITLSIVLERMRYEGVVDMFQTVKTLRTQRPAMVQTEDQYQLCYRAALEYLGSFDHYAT
Series [4] in a line: Steady state volume of distribution was determined in mice. The series is classed as ADME, organism-based. The conditions noted are these: mouse, in vivo; read-out: Vss.
Series [5] deals with T2, Tyrosine-protein phosphatase non-receptor type 11 (Homo sapiens, UniProt Q06124).
T2 sequence (Q06124 whole entry): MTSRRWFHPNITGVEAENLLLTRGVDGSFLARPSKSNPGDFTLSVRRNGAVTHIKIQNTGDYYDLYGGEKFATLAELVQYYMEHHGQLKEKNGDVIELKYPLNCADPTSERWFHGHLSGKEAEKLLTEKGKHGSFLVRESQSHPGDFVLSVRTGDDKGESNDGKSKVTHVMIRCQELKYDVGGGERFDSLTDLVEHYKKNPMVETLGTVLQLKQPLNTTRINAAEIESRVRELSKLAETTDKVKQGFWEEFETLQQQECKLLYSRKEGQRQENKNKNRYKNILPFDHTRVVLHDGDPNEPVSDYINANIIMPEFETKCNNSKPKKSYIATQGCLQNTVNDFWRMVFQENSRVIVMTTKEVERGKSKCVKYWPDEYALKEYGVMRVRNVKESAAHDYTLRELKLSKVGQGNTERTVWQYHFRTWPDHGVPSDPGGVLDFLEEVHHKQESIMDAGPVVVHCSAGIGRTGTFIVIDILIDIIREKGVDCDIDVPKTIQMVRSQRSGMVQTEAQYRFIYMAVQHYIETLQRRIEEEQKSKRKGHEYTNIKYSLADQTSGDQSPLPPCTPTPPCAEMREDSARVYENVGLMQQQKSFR
Put plainly: In vitro inhibitory concentration required against Tyrosine phosphatase SHP-2 in the presence of 300 nM DTT.

Series [6] can be described thus: Cmax value was determined. Format: ADME, organism-based. The settings on record: mouse, in vivo.
Series [7] in a line: Plasma clearance in mice. The conditions noted are these: mouse. The series is classed as ADME, organism-based.
A short description of series [8]: Oral availability at 50 mg/kg po in male mice. Format: ADME, organism-based. On the set-up: dose 50 mg/kg, route oral. The conditions noted are these: mouse, in vivo.
For a further series, the system named is Mus musculus. Briefly: Percent change in blood glucose in male ob/ob mice dosed at 5 mg/kg orally evaluated 2 hr postdose on day 5. The series is classed as functional. The conditions noted are these: route oral.
Series [9] concerns the target Receptor-type tyrosine-protein phosphatase alpha (Homo sapiens, UniProt P18433). Put plainly: In vitro inhibitory concentration required against Protein-tyrosine phosphatase alpha in the presence of 300 nM DTT.
The nature of series [10]: Half life in mice. Format: ADME, organism-based. The settings on record: mouse, in vivo.

Several values for one entry are separate records, joined by “and”; a condition that tells them apart may be missing. Equal values may be shown once.

Sequence of Receptor-type tyrosine-protein phosphatase alpha (P18433 whole entry): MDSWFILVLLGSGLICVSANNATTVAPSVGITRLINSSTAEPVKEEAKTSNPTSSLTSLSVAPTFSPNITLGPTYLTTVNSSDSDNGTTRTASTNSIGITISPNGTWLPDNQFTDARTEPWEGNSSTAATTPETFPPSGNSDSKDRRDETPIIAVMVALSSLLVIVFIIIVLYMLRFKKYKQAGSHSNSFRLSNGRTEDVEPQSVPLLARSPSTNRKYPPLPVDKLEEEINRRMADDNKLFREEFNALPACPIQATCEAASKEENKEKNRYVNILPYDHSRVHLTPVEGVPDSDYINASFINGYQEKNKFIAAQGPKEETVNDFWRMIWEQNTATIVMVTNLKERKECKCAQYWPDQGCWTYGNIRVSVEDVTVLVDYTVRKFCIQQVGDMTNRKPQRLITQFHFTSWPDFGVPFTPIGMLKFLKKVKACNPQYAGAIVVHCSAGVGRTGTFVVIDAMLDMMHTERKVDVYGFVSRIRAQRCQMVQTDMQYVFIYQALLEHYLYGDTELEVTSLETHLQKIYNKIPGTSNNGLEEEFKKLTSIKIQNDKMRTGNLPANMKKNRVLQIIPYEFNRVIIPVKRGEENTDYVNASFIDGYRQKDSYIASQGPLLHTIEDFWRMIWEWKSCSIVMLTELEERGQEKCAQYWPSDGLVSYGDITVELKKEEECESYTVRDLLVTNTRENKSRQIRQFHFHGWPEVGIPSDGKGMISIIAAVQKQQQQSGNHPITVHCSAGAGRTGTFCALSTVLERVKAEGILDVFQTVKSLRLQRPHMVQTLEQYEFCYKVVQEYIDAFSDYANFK

A word on the IC50: it is the point on the concentration scale where inhibition reaches its midpoint. Turning to `Nc1nc(N)c2nc(CN3CCCCC3)nnc2n1`, the IC50 in series [1] was greater than 100 µM; in [2], 24 µM.

With `Nc1nc(N)c2nc(CN3CCN(Cc4ccc5ccccc5c4)CC3)nnc2n1`, the IC50 stood at 33 µM in series [1] and 3.5 µM in series [2].

`CN1CCN(Cc2nnc3nc(N)nc(N)c3n2)CC1`: the IC50 in [1] turned out to be 87 µM; in series [2], 21 µM.

As usually defined, the Cmax is the highest concentration seen after dosing. A word on the clearance: it is the rate of elimination divided by the concentration. Low readings indicate a low capacity for elimination, high ones a high capacity for elimination. The term bioavailability denotes the share of a dose that reaches the circulation, judged against a reference dose that is usually intravenous. By half-life is commonly meant the time in which the quantity being followed falls by half. A low value points to rapid decline. `Nc1nc(N)c2nc(CN3CCN(Cc4ccc(-c5ccccc5)cc4)CC3)nnc2n1`: the IC50 is 16 µM in [3]; 5 µM in series [5]; 18 µM in [1]; 15 µM in series [9]; 2.9 µM and 8 µM in series [2]. In addition, in series [4], the Vd was 3.1 L/kg. Further, the Cmax in [6] was 4 µM. The clearance in series [7] amounted to 104 mL/min/kg. Also, the bioavailability in [8] worked out at 97%. The “Change in blood glucose” value with Mus musculus is recorded as -19%. In addition, in series [10], the half-life was 1 h.

With `Nc1nc(N)c2nc(CN(CCO)CCO)nnc2n1`, the values for the IC50 in series [1] and in series [2] were greater than 100 µM and 97 µM, respectively.

Turning to `Nc1nc(N)c2nc(CN3CCNCC3)nnc2n1`, the IC50 in series [1] turned out to be 91 µM; in series [2], 29 µM.

In the case of `Nc1nc(N)c2nc(CN3CCN(Cc4cccc5ccccc45)CC3)nnc2n1`, the IC50 in series [1] came to 40 µM; in series [2] it was 4.5 µM.

With `Nc1nc(N)c2nc(CN3CCN(c4ccccc4)CC3)nnc2n1`, the IC50 in series [1] and in series [2] was greater than 100 µM in each case.

As for `CCN(CC)Cc1nnc2nc(N)nc(N)c2n1`, the IC50 in series [3] was 28 µM; in series [5], 14 µM; in series [1], greater than 100 µM; in series [9] it was 28 µM; in series [2], 29 µM and 12 µM.

In the case of `Nc1nc(N)c2nc(CN3CCOCC3)nnc2n1`, the IC50 is greater than 100 µM in series [1] and 24 µM in series [2].

For the compound `Nc1nc(N)c2nc(CN3CCN(Cc4ccccc4)CC3)nnc2n1`, the IC50 in series [3] was 12 µM; in [5] it was 9 µM; in series [1], 98 µM; in [9], 24 µM; in [2], 6.2 µM and 8 µM. Also, the “Change in blood glucose” value in the series on Mus musculus is recorded as -23%.

For the origin of these results see ChEMBL document CHEMBL1136184, “Identification of a novel class of orally active pyrimido[5,4-3][1,2,4]triazine-5,7-diamine-based hypoglycemic agents with protein tyrosine phosphatase inhibitory activity” (Bioorg Med Chem Lett, 2003).
